From ChEMBL document CHEMBL3132769, “Fragment growing to retain or alter the selectivity of anchored kinase hinge-binding fragments” (Medchemcomm, 2014)

Assays:
[1] = tested on: Tyrosine-protein kinase ABL1 (Homo sapiens), P00519 [H396P]; test: Inhibition of human truncated ABL H396P mutant expressed in baculovirus assessed as substrate phosphorylation using fluorescence-labelled peptides as substrate at 0.2 uM after 90 mins by microfluidic peptide phosphorylation assay
[2] = tested on: Tyrosine-protein kinase ABL1 (Homo sapiens), P00519 [T315I]; test: Inhibition of human truncated ABL T315I mutant expressed in baculovirus assessed as substrate phosphorylation using fluorescence-labelled peptides as substrate at 0.2 uM after 90 mins by microfluidic peptide phosphorylation assay
[3] = target: T1, Serine/threonine-protein kinase Sgk2 (Homo sapiens) (UniProt Q9HBY8); test: Inhibition of human full length SGK2 expressed in baculovirus assessed as substrate phosphorylation using fluorescence-labelled peptides as substrate at 0.2 uM after 90 mins by microfluidic peptide phosphorylation assay
T1 sequence (whole entry): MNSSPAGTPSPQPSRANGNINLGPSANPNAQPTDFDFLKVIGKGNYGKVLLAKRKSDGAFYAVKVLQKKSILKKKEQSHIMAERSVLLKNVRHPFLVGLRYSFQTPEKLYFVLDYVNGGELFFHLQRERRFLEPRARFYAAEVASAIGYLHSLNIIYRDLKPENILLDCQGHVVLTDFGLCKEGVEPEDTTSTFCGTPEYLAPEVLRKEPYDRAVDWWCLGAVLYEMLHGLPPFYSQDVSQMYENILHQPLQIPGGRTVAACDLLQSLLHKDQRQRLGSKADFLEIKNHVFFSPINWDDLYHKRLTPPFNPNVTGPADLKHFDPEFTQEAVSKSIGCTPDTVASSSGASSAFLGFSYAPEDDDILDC

[4] = target: Insulin receptor (Homo sapiens) (UniProt P06213); test: Inhibition of human INSR catalytic domain expressed in baculovirus assessed as substrate phosphorylation using fluorescence-labelled peptides as substrate at 420 uM after 90 mins by microfluidic peptide phosphorylation assay
[5] = tested on: Fibroblast growth factor receptor 2 (Homo sapiens), P21802 [N549H]; test: Inhibition of human FGFR2 N549H mutant catalytic domain expressed in baculovirus assessed as substrate phosphorylation using fluorescence-labelled peptides as substrate at 420 uM after 90 mins by microfluidic peptide phosphorylation assay
Fibroblast growth factor receptor 2 (Homo sapiens), P21802 [N549H], sequence (P21802 whole entry N549H, the tested form may be a part): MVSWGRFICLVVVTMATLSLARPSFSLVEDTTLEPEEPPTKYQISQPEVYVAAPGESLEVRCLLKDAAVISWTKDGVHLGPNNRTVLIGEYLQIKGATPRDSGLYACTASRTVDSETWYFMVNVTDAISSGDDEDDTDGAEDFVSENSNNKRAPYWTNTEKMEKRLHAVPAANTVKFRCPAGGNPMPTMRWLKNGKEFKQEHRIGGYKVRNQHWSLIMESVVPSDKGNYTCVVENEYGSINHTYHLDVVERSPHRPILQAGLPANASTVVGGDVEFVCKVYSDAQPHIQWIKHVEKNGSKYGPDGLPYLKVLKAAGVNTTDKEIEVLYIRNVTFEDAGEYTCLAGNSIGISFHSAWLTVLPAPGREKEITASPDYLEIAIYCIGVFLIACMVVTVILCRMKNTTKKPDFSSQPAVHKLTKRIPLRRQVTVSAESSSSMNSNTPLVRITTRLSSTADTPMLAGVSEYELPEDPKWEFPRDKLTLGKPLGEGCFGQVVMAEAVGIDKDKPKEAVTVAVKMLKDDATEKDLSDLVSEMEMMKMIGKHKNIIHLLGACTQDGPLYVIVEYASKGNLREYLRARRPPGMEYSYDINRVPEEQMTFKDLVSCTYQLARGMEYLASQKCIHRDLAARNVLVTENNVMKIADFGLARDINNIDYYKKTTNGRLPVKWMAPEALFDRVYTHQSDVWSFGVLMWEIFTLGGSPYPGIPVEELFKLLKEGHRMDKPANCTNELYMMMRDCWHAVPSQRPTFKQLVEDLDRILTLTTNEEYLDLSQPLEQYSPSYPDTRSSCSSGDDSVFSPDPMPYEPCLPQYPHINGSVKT

[6] = target: Protein kinase C theta type (Homo sapiens) (UniProt Q04759); test: Inhibition of human truncated PKC theta expressed in baculovirus assessed as substrate phosphorylation using fluorescence-labelled peptides as substrate at 420 uM after 90 mins by microfluidic peptide phosphorylation assay
Protein kinase C theta type (Homo sapiens), sequence (Q04759 whole entry, looked up, the tested form may be a part): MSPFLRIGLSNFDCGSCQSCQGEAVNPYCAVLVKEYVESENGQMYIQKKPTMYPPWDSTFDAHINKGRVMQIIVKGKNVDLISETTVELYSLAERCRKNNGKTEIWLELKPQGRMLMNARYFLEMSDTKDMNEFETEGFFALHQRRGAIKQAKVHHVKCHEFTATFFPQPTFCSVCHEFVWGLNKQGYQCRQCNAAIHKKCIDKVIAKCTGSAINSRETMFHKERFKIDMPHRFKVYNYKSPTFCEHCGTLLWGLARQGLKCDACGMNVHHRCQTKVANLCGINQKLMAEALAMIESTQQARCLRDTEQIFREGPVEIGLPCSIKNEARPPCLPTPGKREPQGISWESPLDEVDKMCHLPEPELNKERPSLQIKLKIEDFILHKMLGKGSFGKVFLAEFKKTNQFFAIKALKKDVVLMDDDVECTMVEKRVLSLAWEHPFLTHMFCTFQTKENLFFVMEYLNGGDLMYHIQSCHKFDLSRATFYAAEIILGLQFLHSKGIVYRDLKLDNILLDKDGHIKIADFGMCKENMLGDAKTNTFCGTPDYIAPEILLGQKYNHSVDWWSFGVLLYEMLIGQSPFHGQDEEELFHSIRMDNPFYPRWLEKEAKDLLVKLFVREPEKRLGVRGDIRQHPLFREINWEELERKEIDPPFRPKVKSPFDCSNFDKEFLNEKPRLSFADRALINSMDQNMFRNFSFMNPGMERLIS

[7] = target: MAP/microtubule affinity-regulating kinase 3 (Homo sapiens) (UniProt P27448); test: Inhibition of human full length c-TAK1 expressed in Escherichia coli cell assessed as substrate phosphorylation using fluorescence-labelled peptides as substrate at 95 uM after 90 mins by microfluidic peptide phosphorylation assay
MAP/microtubule affinity-regulating kinase 3 (Homo sapiens), sequence (P27448 whole entry, looked up): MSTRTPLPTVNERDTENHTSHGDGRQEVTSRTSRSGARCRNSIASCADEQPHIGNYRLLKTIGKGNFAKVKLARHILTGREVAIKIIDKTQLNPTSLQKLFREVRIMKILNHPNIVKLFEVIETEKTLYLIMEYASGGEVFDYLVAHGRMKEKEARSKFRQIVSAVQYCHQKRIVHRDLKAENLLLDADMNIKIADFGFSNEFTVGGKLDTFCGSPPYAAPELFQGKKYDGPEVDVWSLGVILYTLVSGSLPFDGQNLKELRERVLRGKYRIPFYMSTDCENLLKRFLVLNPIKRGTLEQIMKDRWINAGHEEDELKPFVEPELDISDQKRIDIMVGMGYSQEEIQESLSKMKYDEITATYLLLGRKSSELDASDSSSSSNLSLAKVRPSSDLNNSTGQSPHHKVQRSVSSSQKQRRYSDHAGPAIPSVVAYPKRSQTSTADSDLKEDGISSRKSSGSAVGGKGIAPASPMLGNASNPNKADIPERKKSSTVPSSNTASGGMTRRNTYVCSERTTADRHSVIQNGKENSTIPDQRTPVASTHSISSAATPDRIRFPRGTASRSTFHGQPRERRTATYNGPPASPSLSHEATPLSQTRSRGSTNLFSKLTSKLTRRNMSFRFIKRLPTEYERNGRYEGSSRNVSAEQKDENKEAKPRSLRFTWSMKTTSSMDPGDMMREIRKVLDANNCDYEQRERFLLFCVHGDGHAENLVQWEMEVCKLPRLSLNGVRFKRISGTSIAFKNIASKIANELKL

[8] = target: MAP kinase-activated protein kinase 2 (Homo sapiens) (UniProt P49137); test: Inhibition of human full length MAPKAPK2 expressed in baculovirus assessed as substrate phosphorylation using fluorescence-labelled peptides as substrate at 9 uM after 90 mins by microfluidic peptide phosphorylation assay
MAP kinase-activated protein kinase 2 (Homo sapiens), sequence (P49137 whole entry, looked up, the tested form may be a part): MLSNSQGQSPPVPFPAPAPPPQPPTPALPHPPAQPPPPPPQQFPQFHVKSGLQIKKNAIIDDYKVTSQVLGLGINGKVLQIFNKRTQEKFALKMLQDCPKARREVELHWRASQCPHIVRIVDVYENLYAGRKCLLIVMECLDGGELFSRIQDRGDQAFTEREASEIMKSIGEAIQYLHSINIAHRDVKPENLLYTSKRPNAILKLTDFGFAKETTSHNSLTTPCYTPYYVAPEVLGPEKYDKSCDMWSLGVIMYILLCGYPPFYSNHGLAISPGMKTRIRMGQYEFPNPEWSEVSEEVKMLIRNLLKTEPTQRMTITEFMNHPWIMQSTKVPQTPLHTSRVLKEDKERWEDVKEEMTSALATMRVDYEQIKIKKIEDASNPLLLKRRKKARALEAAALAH

[9] = target: Calcium/calmodulin-dependent protein kinase type II subunit gamma (Homo sapiens) (UniProt Q13555); test: Inhibition of human CAMK2 gamma catalytic domain expressed in baculovirus assessed as substrate phosphorylation using fluorescence-labelled peptides as substrate at 1000 uM after 90 mins by microfluidic peptide phosphorylation assay
Calcium/calmodulin-dependent protein kinase type II subunit gamma (Homo sapiens), sequence (Q13555 whole entry, the tested form may be a part): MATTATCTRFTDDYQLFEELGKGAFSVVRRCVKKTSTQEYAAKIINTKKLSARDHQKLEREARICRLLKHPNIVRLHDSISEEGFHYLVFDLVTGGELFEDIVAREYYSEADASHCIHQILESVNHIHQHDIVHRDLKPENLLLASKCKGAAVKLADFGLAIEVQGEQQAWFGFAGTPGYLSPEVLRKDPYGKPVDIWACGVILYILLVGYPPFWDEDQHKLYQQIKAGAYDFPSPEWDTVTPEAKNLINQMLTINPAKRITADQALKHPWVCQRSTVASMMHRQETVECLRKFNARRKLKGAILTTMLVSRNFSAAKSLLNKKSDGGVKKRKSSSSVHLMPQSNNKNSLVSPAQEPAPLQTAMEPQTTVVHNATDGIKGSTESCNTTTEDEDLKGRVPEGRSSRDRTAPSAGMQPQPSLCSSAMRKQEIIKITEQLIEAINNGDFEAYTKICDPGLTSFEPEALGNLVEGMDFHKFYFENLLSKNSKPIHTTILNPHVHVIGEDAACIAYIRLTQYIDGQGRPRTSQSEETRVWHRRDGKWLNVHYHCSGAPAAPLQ

[10] = target: T2, cGMP-dependent protein kinase 1 (Homo sapiens) (UniProt Q13976); test: Inhibition of human full length PKG-1a expressed in baculovirus assessed as substrate phosphorylation using fluorescence-labelled peptides as substrate at 8 uM after 90 mins by microfluidic peptide phosphorylation assay
T2 sequence (whole entry): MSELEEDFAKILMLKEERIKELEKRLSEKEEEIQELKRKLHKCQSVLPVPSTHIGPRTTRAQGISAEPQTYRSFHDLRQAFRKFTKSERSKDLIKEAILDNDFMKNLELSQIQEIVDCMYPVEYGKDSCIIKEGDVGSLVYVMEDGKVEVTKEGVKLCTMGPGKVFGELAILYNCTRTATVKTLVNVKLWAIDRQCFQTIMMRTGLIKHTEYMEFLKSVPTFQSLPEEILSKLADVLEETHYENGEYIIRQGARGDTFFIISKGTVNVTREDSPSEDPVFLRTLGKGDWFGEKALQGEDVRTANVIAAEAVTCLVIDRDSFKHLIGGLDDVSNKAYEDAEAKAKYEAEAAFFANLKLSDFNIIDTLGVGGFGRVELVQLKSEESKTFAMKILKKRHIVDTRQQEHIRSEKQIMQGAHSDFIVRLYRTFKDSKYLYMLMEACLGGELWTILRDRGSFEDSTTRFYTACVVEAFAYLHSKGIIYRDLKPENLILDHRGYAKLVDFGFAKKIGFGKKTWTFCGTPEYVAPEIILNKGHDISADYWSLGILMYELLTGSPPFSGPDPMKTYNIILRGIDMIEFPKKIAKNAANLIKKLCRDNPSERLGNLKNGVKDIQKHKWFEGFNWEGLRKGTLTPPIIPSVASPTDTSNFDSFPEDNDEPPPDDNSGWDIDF

`Clc1ccc(C2(c3ccc(-c4ncnc5[nH]cnc45)cc3)CCNCC2)cc1` was tested, and the inhibition [1] was 4.5%, the inhibition [2] was 0% and the inhibition [3] was 23.5%.

`c1nc(N2CCOCC2)c2nc[nH]c2n1` gave an inhibition [4] of 8%, an inhibition [5] of 89.5% and an inhibition [6] of 67.5%.

Compound `NCCc1ccc(-c2ncnc3[nH]cnc23)cc1` has an inhibition [7] of 18%.

`NCC1CN(c2ncnc3[nH]c4cnccc4c23)CCO1` (stereo not given) was tested, and the inhibition [8] was 19.5%.

With `c1cnc2[nH]ccc2c1` the inhibition [9] was 24.5%.

For `NCC1CCN(c2ncnc3[nH]ccc23)CC1`, the inhibition [10] was 14%.
